Assay [1] is filed under the species Rattus norvegicus. Briefly: (§1) Inhibition of rat liver Alpha-glucosidase I using Glc3Man9GlcNAc2 substrate.
Assay [2] is filed under the species Rattus norvegicus. Briefly: (§2) Inhibition of rat liver Alpha-glucosidase II using p-nitrophenyl alpha D-glucopyranoside substrate.
The subject of assay [3] is HL-60. Briefly: Inhibition of Alpha-glucosidase II in human HL60 cells using 2-Anthranilic acid labelled NB-DNJ substrate after 24 hrs by HPLC analysis relative to control. It counts as cell-based.
For assay [4], the species on record is Rattus norvegicus. The assay is described as follows: Inhibition of rat liver Alpha-glucosidase II upto 500 uM using Glc1Man5GlcNAc1 substrate after 90 mins by NP-HPLC analysis.
Assay [5] is filed under the species Rattus norvegicus. The assay is described as follows: Inhibition of rat liver Alpha-glucosidase II upto 500 uM using Glc2Man7GlcNAc2 substrate after 2 hrs by NP-HPLC analysis.
A short description of assay [6]: Inhibition of rat liver Alpha-glucosidase II using Glc1Man5GlcNAc1 substrate after 90 mins by NP-HPLC analysis.
Assay [7] relates to HL-60. Briefly: Inhibition of Alpha-glucosidase II in human HL60 cells assessed as Glc1Man4GlcNAc1 formation using 2-Anthranilic acid labelled NB-DNJ substrate by HPLC analysis. It is filed as cell-based.
Assay [8] is described as follows: Inhibition of rat liver Alpha-glucosidase II using Glc2Man7GlcNAc2 substrate after 2 hrs by NP-HPLC analysis.
Assay [9] can be described thus: as §1.
A short description of assay [10]: as §2.
Assay [11] concerns HL-60. The assay is described as follows: Inhibition of Alpha-glucosidase I in human HL60 cells using Glc3Man9GlcNAc2 substrate after 24 hrs by HPLC analysis. It counts as cell-based.
Assay [12] in a line: Inhibition of rat liver Alpha-glucosidase II.

Active and inactive are the calls of the source. The rule behind the calls is not given here.

The IC50 is the concentration needed to halve the response being measured. Higher therefore signals lower potency.

With `CO[C@H]1O[C@H](CO)[C@@H](O)[C@H](O)[C@H]1N[C@H]1C=C(CO)[C@@H](O)[C@H](O)[C@H]1O`, the inhibition entry in [1] and in assay [2] was “inactive” in each case.
Take `CO[C@H]1O[C@H](CN[C@@H]2C=C(CO)[C@@H](O)[C@H](O)[C@H]2O)[C@@H](O)[C@H](O)[C@H]1O`: the inhibition result in assay [3], in [4] and in [5] was “inactive” throughout.
Compound `CO[C@H]1O[C@H](CO)[C@@H](O)[C@H](N[C@H]2C=C(CO)[C@@H](O)[C@H](O)[C@H]2O)[C@@H]1O` displayed an IC50 in assay [6] of 236 µM. For the same compound, in assay [5], the inhibition entry was “inactive”. In addition, the inhibition result in assay [7] was “Active”.
As to `CO[C@H]1O[C@H](CO)[C@@H](O)[C@H](N[C@H]2C=C(CO)[C@@H](O)[C@H](O)[C@H]2O)[C@H]1O`, the IC50 in [8] was determined as 72 µM; in assay [6], 143 µM. In addition, in assay [7], the inhibition result was “Active”.
With `N[C@H]1C=C(CO)[C@@H](O)[C@H](O)[C@H]1O` [VALIENAMINE], the IC50 in assay [9] came out at 780 µM; in assay [10] it was 1000 µM. In addition, the inhibition result in assay [11] was “inactive”.
In assay [12], `CCCCN1C[C@H](O)[C@@H](O)[C@H](O)[C@H]1CO` yielded an IC50 of 4.6 µM.
As for `CO[C@H]1O[C@H](CO)[C@@H](O)[C@H](N[C@H]2[C@H](O)[C@H](O)[C@@H](O)[C@H](O)[C@H]2O)[C@H]1O`, the inhibition result in assay [1] and in assay [2] was “inactive” each time.
Consider `CO[C@H]1O[C@H](CN[C@H]2C=C(CO)[C@@H](O)[C@H](O)[C@H]2O)[C@@H](O)[C@H](O)[C@H]1O`, for which the inhibition entry in assay [3], in assay [4] and in assay [5] was “inactive” each time.

The values above are taken from ChEMBL document CHEMBL1821593, “Synthesis and α-Glucosidase II inhibitory activity of valienamine pseudodisaccharides relevant to N-glycan biosynthesis” (Bioorg Med Chem Lett, 2011).
